In patent publication US20110152094A1, “Herbicidal compositions comprising flufenacet” (Bayer CropScience AG, priority 2009, published 2011):

What was measured:
Type in all cases: in vivo
[1] = test system: LOLPE = Lolium perenne; experiment: Greenhouse trial, post-emergence (PO) action against weeds (test method 2); conditions: PO application; g of AS/ha: (A) 120, (B) 1200, (A)+(B) 120 + 1200; about 3 weeks after application
Protocol: (§1) In the standard design of the test, seeds of various broad-leaved weed and weed grass biotypes (origins) were sown in a 8-13 cm diameter pot filled with natural soil of a standard field soil (loamy silt; non-sterile) and covered with a covering soil layer of about 1 cm. The pots were then cultivated in a greenhouse (12-16 h of light, temperature day 20-22° C., night 15-18° C.) until the time of application. The pots were treated on a laboratory track sprayer with spray liquors comprising the compositions according to the invention, mixtures of the prior art or components used individually. Application of the active compounds or active compound combinations formulated as WG, WP, EC or otherwise was carried out at the appropriate growth stages of the plants. The application rate for the spray application was 100-600 l of water/ha. After the treatment, the plants were returned to the greenhouses.
(§2) About 3 weeks after the application, the soil action or/and foliar action was assessed visually according to a scale of 0-100% in comparison to an untreated comparative group: 0%=no noticeable effect compared to the untreated comparative group; 100%=full effect compared to the untreated comparative group.
(§3) (notes: the term “seeds” also includes vegetative propagation forms such as, for example, rhizome pieces; abbreviations used: h light=hours of illumination, g of AS/ha=gram of active substance per hectare, l/ha=liter per hectare, S=sensitive, R=resistant) • 1. Pre-emergence action against weeds: seeds of various broad-leaved weed and weed grass biotypes (origins) were sown in a 8-13 cm diameter pot filled with natural soil of a standard field soil (loamy silt; non-sterile) and covered with a covering soil layer of about 1 cm. The pots were then cultivated in a greenhouse (12-16 h of light, temperature day 20-22° C., night 15-18° C.) until the time of application. The pots were treated at the BBCH stage 00-10 of the seeds/plants on a laboratory track sprayer with spray liquors comprising the compositions according to the invention, mixtures or components used individually, as WG, WP, EC or other formulations. The application rate for the spray application was 100-600 l of water/ha. After the treatment, the plants were returned to the greenhouses and, when required, treated with fertilizer and watered. • 2. Post-emergence action against weeds: seeds of various broad-leaved weed and weed grass biotypes (origins) were sown in a 8-13 cm diameter pot filled with natural soil of a standard field soil (loamy silt; non-sterile) and covered with a covering soil layer of about 1 cm. The pots were then cultivated in a greenhouse (12-16 h of light, temperature day 20-22° C., night 15-18° C.) until the time of application. The pots were treated at various BBCH stages between 11-25 of the seeds/plants, i.e. generally between two to three weeks after the start of the cultivation, on a laboratory track sprayer with spray liquors comprising the compositions according to the invention, mixtures or components used individually, as WG, WP, EC or other formulations. The application rate for the spray application was 100-600 l of water/ha. After the treatment, the plants were returned to the greenhouses and, when required, treated with fertilizer and watered. • 3. Selective pre-emergence action: seeds of various crop species (origins) were sown in a 8-13 cm diameter pot filled with natural soil of a standard field soil (loamy silt; non-sterile) and covered with a covering soil layer of about 1 cm. The pots were then cultivated in a greenhouse (12-16 h of light, temperature day 20-22° C., night 15-18° C.) until the time of application. The pots were treated at the BBCH stage 00-10 of the seeds/plants on a laboratory track sprayer with spray liquors comprising the compositions according to the invention, mixtures or components used individually, as WG, WP, EC or other formulations. The application rate for the spray application was 100-600 l of water/ha. […]

[2] = test system: STEME = Stellaria media; experiment: as above; conditions: PO application; g of AS/ha: (A) 120, (B) 1200, (A)+(B) 120 + 1200; about 3 weeks after application
Protocol: as §1, §2, §3

[3] = test system: VIOAR = Viola arvensis; experiment: as above; conditions: PO application; g of AS/ha: (A) 120, (B) 1200, (A)+(B) 120 + 1200; about 3 weeks after application
Protocol: as §1, §2, §3

[4] = test system: HORVS = Hordeum vulgare, summer barley; experiment: Greenhouse trial, selective post-emergence (PO) action on crop plant (test method 4); conditions: PO application, g of AS/ha: (A) 120, (B) 1200, (A)+(B) 120 + 1200, about 3 weeks after application
Protocol: as §1
as §2, with “group. […]” for “group.”

[5] = test system: AVEFA = Avena fatua; experiment: Greenhouse trial, pre-emergence (PE) action against weeds (test method 1); conditions: PE application; g of AS/ha: (A) 90, (B) 1200, (A)+(B) 90 + 1200
Protocol: as §1, §2
(§4) (notes: the term “seeds” also includes vegetative propagation forms such as, for example, rhizome pieces; abbreviations used: h light=hours of illumination, g of AS/ha=gram of active substance per hectare, l/ha=liter per hectare, S=sensitive, R=resistant) • 1. Pre-emergence action against weeds: seeds of various broad-leaved weed and weed grass biotypes (origins) were sown in a 8-13 cm diameter pot filled with natural soil of a standard field soil (loamy silt; non-sterile) and covered with a covering soil layer of about 1 cm. The pots were then cultivated in a greenhouse (12-16 h of light, temperature day 20-22° C., night 15-18° C.) until the time of application. The pots were treated at the BBCH stage 00-10 of the seeds/plants on a laboratory track sprayer with spray liquors comprising the compositions according to the invention, mixtures or components used individually, as WG, WP, EC or other formulations. The application rate for the spray application was 100-600 l of water/ha. After the treatment, the plants were returned to the greenhouses and, when required, treated with fertilizer and watered. • 2. Post-emergence action against weeds: seeds of various broad-leaved weed and weed grass biotypes (origins) were sown in a 8-13 cm diameter pot filled with natural soil of a standard field soil (loamy silt; non-sterile) and covered with a covering soil layer of about 1 cm. The pots were then cultivated in a greenhouse (12-16 h of light, temperature day 20-22° C., night 15-18° C.) until the time of application. […]

[6] = test system: MATCH = Matricaria chamomilla; experiment: as above; conditions: PE application; g of AS/ha: (A) 90, (B) 1200, (A)+(B) 90 + 1200
Protocol: as §1, §2, §4

[7] = test system: HORVW = Hordeum vulgare, winter barley; experiment: Greenhouse trial, selective pre-emergence (PE) action on crop plant (test method 3); conditions: PE application, g of AS/ha: (A) 90, (B) 1200, (A)+(B) 90 + 1200
Protocol: as §1
as §2, with “group. […]” for “group.”

[8] = test system: AVEFA = Avena fatua; experiment: Greenhouse trial, pre-sowing application 7 days prior to sowing (test method 5); conditions: g of AS/ha: (A) 90, (B) 1200, (A)+(B) 90 + 1200
Protocol: as §1, §2
(§5) (notes: the term “seeds” also includes vegetative propagation forms such as, for example, rhizome pieces; abbreviations used: h light=hours of illumination, g of AS/ha=gram of active substance per hectare, l/ha=liter per hectare, S=sensitive, R=resistant) • 1. Pre-emergence action against weeds: seeds of various broad-leaved weed and weed grass biotypes (origins) were sown in a 8-13 cm diameter pot filled with natural soil of a standard field soil (loamy silt; non-sterile) and covered with a covering soil layer of about 1 cm. The pots were then cultivated in a greenhouse (12-16 h of light, temperature day 20-22° C., night 15-18° C.) until the time of application. The pots were treated at the BBCH stage 00-10 of the seeds/plants on a laboratory track sprayer with spray liquors comprising the compositions according to the invention, mixtures or components used individually, as WG, WP, EC or other formulations. The application rate for the spray application was 100-600 l of water/ha. After the treatment, the plants were returned to the greenhouses and, when required, treated with fertilizer and watered. • 2. Post-emergence action against weeds: seeds of various broad-leaved weed and weed grass biotypes (origins) were sown in a 8-13 cm diameter pot filled with natural soil of a standard field soil (loamy silt; non-sterile) and covered with a covering soil layer of about 1 cm. The pots were then cultivated in a greenhouse (12-16 h of light, temperature day 20-22° C., night 15-18° C.) until the time of application. The pots were treated at various BBCH stages between 11-25 of the seeds/plants, i.e. generally between two to three weeks after the start of the cultivation, on a laboratory track sprayer with spray liquors comprising the compositions according to the invention, mixtures or components used individually, as WG, WP, EC or other formulations. The application rate for the spray application was 100-600 l of water/ha. After the treatment, the plants were returned to the greenhouses and, when required, treated with fertilizer and watered. • 3. […]

[9] = test system: HORVW = Hordeum vulgare, winter barley; experiment: as above; conditions: g of AS/ha: (A) 90, (B) 1200, (A)+(B) 90 + 1200
Protocol: as §1, §2, §5

[10] = test system: MATCH = Matricaria chamomilla; experiment: as above; conditions: g of AS/ha: (A) 90, (B) 1200, (A)+(B) 90 + 1200
Protocol: as §1, §2, §5

[11] = test system: AVEFA = Avena fatua; experiment: Greenhouse trial, PE application with different irrigation variations (test method 6); conditions: g of AS/ha: (A) 120, (B) 1200, (A)+(B) 120 + 1200
Protocol: as §1, §2, §3

[12] = test system: MATCH = Matricaria chamomilla; experiment: as above; conditions: g of AS/ha: (A) 120, (B) 1200, (A)+(B) 120 + 1200
Protocol: as §1, §2, §3

[13] = test system: TRZAW = Triticum aestivum, winter wheat; experiment: as above; conditions: g of AS/ha: (A) 120, (B) 1200, (A)+(B) 120 + 1200
Protocol: as §1, §2, §3

[14] = test system: STEME = Stellaria media; experiment: Greenhouse trial, activity with different soil types (test method 7); conditions: IU soil (loamy silt, standard field soil); g of AS/ha: (A) 120, (B) 1200, (A)+(B) 120 + 1200
Protocol: as §1, §2, §3

Compound: CCC(CC)Nc1c([N+](=O)[O-])cc(C)c(C)c1[N+](=O)[O-] [(B) pendimethalin, N-(1-ethylpropyl)-3,4-dimethyl-2,6-dinitrobenzenamine]
- activity LOLPE (visual assessment, scale 0-100% vs untreated) [1]: 0%
- activity STEME (visual assessment, scale 0-100% vs untreated) [2]: 30%
- activity VIOAR (visual assessment, scale 0-100% vs untreated) [3]: 30%
- activity on crop plant HORVS (visual assessment, scale 0-100% vs untreated) [4]: 10%
- activity AVEFA (visual assessment, scale 0-100% vs untreated) [5]: 88%
- activity MATCH (visual assessment, scale 0-100% vs untreated) [6]: 18%
- activity on crop plant HORVW (visual assessment, scale 0-100% vs untreated) [7]: 50%
- activity AVEFA (visual assessment, scale 0-100% vs untreated) [8]: 70%
- activity on crop plant HORVW (visual assessment, scale 0-100% vs untreated) [9]: 40%
- activity MATCH (visual assessment, scale 0-100% vs untreated) [10]: 0%
- activity AVEFA (visual assessment, scale 0-100% vs untreated) ([11]; irrigation from above): 5%
- activity AVEFA (visual assessment, scale 0-100% vs untreated) ([11]; irrigation from below): 10%
- activity MATCH (visual assessment, scale 0-100% vs untreated) ([12]; irrigation from above): 30%
- activity MATCH (visual assessment, scale 0-100% vs untreated) ([12]; irrigation from below): 18%
- activity on crop plant TRZAW (visual assessment, scale 0-100% vs untreated) ([13]; irrigation from above): 20%
- activity on crop plant TRZAW (visual assessment, scale 0-100% vs untreated) ([13]; irrigation from below): 5%
- activity STEME IU soil (visual assessment, scale 0-100% vs untreated) [14]: 85%
